In patent US9718825B2, “N-(4-(azaindazol-6-yl)-phenyl)-sulfonamides and their use as pharmaceuticals” (priority 2013, dated 2017):

What was measured:
[1] = system: SGK-1 dependent phosphorylation of GSK3beta in U2OS cells; experiment: SGK-1 dependent phosphorylation of GSK3beta in U2OS cells overexpressing recombinant SGK-1 and GSK3beta; format: cell-based, human; conditions: U2OS cells, 6 h incubation, ratio of phosphorylated GSK3beta to total GSK3beta; read-out: IC50 values for inhibition of SGK-1 dependent phosphorylation of GSK3beta in U2OS cells
Method: B) Determination of the Effect on SGK-1 Dependent Phosphorylation of GSK3beta in U2OS Cells
U2OS cells were cultured in 1:1 Dulbecco modified Eagle medium/Ham's F12 and 10% heat-inactivated fetal calf serum (FCS Gold) at 37° C., 7% CO2 and 95% relative humidity. […] Cell suspension mixed with BacMam viruses was seeded in 96 well pCLEAR plates (Greiner) at 3×10^4 cells per well in 250 μl medium. […] 1 μl of a solution of the test compound at 250×final concentration was added. Cells are incubated at 37° C., 7% CO2 and 95% relative humidity. […] After removing the fixation solution, cells were permeabilised by adding 200 μl PBT (0.2% Triton X-100 in PBS) per well for 5 min. After removing PBT, cells were blocked by adding 200 μl of blocking solution (1% bovine serum albumine in PBS) per well. Blocking solution was removed and 50 μl of primary antibody (rabbit anti-phospho-GSK-3beta (Ser9), and mouse anti-GSK-3beta) were added for 1 h. […] After washing the cells 3 times with PBS, 200 μl of PBS were added. Fluorescence signals were measured with the ImageXpress MICRO (Molecular Devices).

[2] = target: recombinant human SGK-1 enzyme (Homo sapiens, UniProt O00141); experiment: Enzymatic activity assay: SGK-1 substrate peptide phosphorylation (Caliper lab-chip mobility shift); format: biochemical; conditions: peptide substrate 1 μM, ATP 10 μM, 60 min at 37° C., read-out: IC50 values for inhibition of SGK-1 enzymatic activity
Method: In one of the cellular assays, the SGK-1 dependent phosphorylation of glycogen synthase kinase 3beta (GSK3beta) in U2OS cells was measured, in another one, a functional electrophysiological assay, the SGK-1 dependent activation of epithelial Na^+ channel (ENaC) currents in A6 cell monolayers, and in another one chondrocyte hypertrophic differentiation in mouse chondrogenic ATDC5 cells.
A) Enzymatic Activity Assay
For the determination of the compound dose response, a 10 mM DMSO stock solution was diluted and tested in a ten-point, three-fold dilution series run in duplicate beginning at 30 μM final concentration. Data were analyzed using a four-parameter curve fit with a fixed minimum and maximum experimentally defined as the average positive and negative controls on each plate.

recombinant human SGK-1 enzyme, sequence (O00141 whole entry, looked up): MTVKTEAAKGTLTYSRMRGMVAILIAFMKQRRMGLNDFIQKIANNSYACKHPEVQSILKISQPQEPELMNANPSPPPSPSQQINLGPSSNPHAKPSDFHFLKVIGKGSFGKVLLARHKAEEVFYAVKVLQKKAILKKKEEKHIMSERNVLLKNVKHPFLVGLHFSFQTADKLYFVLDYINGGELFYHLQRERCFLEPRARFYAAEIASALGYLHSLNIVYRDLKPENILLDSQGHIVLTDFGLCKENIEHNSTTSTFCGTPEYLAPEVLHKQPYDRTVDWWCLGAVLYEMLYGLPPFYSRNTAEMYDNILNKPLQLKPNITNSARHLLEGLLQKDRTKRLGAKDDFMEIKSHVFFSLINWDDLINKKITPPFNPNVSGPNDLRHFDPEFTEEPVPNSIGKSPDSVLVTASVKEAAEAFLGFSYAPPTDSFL

Row | SMILES | IC50 [1] [nM] | IC50 [2] [nM]
1 | COc1ccc(Cl)c(S(=O)(=O)Nc2ccc(-c3nc(OCCC(N)=O)c4cn[nH]c4n3)cc2)c1 [Example 117] | 6800 | 2.3
2 | COc1ccc(F)c(S(=O)(=O)Nc2ccc(-c3nc(OC4CCC(O)CC4)c4c(C)n[nH]c4n3)cc2)c1 (stereo not shown) [Example 129] | 170 | < 1.5
3 | COc1ccc(Cl)c(S(=O)(=O)Nc2ccc(-c3nc(OC4CCN(CCF)CC4)c4c(C)n[nH]c4n3)cc2)c1 [Example 341] | 63 | 4.9
4 | N#Cc1ccc(Cl)cc1S(=O)(=O)Nc1ccc(-c2nc(OCC(F)(F)F)c3c(N)n[nH]c3n2)cc1 [Example 196] | 330 | 4.6
5 | COCCc1nc(-c2ccc(NS(=O)(=O)c3cc(OC)ccc3F)cc2)nc2[nH]nc(N)c12 [Example 504] | 300 | 12
6 | Nc1n[nH]c2nc(-c3ccc(NS(=O)(=O)c4cc5c(cc4Br)OCCCO5)cc3)ncc12 [Example 459] | 4000 | 6.7
7 | O=S(=O)(Nc1ccc(-c2nc(N3CC(O)C3)c3cn[nH]c3n2)cc1F)c1cc(Cl)ccc1Cl [Example 437] | 1800 | 100
8 | CC(C)COc1nc(-c2ccc(NS(=O)(=O)c3cccc(Cl)c3F)cc2)nc2[nH]nc(N)c12 [Example 327] | 430 | 420
9 | O=S(=O)(Nc1ccc(-c2nc(SCCCO)c3cn[nH]c3n2)cc1)c1cc(Cl)ccc1Cl [Example 89] | 100 | < 1.5
10 | Cc1ccc(C#N)c(S(=O)(=O)Nc2ccc(-c3nc(OC4CNC4)c4cn[nH]c4n3)cc2)c1 [Example 188] | 900 | 3.4
11 | O=S(=O)(Nc1ccc(-c2nc(N3CCNCC3)c3cn[nH]c3n2)cc1)c1cc(Cl)ccc1Cl [Example 17] | 810 | < 1.2
12 | Cc1nc(-c2ccc(NS(=O)(=O)c3cc4c(cc3Br)OCCCO4)cc2)nc2[nH]nc(N)c12 [Example 477] | 4500 | 4.8
13 | Cc1ccc(C#N)c(S(=O)(=O)Nc2ccc(-c3nc(OCC4CNC(=O)C4)c4cn[nH]c4n3)cc2)c1 (stereo not shown) [Example 125] | 12000 | 2
14 | Cc1nc(-c2ccc(NS(=O)(=O)c3cc(F)c(F)c(F)c3)cc2)nc2[nH]nc(N)c12 [Example 165] | 970 | 110
15 | COCCc1nc(-c2ccc(NS(=O)(=O)c3cc(Cl)ccc3Cl)cc2)nc2[nH]nc(N)c12 [Example 505] | 620 | 47
16 | Cc1ccc(F)c(S(=O)(=O)Nc2ccc(-c3nc(OCCCN)c4c(C)n[nH]c4n3)cc2)c1 [Example 207] | 140 | < 1.5
17 | Cc1nc(-c2ccc(NS(=O)(=O)c3cc(Cl)ccc3Cl)cc2)nc2[nH]ncc12 [Example 76] | 3000 | 5.7
18 | Nc1n[nH]c2nc(-c3ccc(NS(=O)(=O)c4cc(Cl)sc4Cl)cc3)nc(C3CC3)c12 [Example 500] | 250 | 2.7
19 | COCCc1nc(-c2ccc(NS(=O)(=O)c3cc(C)ccc3C#N)cc2)nc2[nH]nc(N)c12 [Example 513] | 300 | 68
20 | O=S(=O)(Nc1ccc(-c2nc(Oc3cccnc3)c3cn[nH]c3n2)cc1)c1cc(Cl)ccc1F [Example 26] | 2600 | < 1.2
21 | CC(C)Oc1nc(-c2ccc(NS(=O)(=O)c3cc(Cl)ccc3Cl)cc2)nc2[nH]nc(N)c12 [Example 335] | 350 | 8.3
22 | Cc1ccc(F)c(S(=O)(=O)Nc2ccc(-c3nc(OCCC(N)=O)c4cn[nH]c4n3)cc2)c1 [Example 116] | 4800 | < 1.5
23 | Cc1ccc(F)c(S(=O)(=O)Nc2ccc(-c3nc(OC4CCC(O)CC4)c4cn[nH]c4n3)cc2)c1 (stereo not shown) [Example 92] | 180 | 2.1
24 | Cc1ccc(F)c(S(=O)(=O)Nc2ccc(-c3nc(OC4CCCNC4)c4c(C)n[nH]c4n3)cc2)c1 (stereo not shown) [Example 338] | 44 | 1.6
25 | O=S(=O)(Nc1ccc(-c2nc(OC3CNC3)c3cn[nH]c3n2)cc1)c1cc(Cl)ccc1Cl [Example 190] | 120 | 4.7
26 | N#Cc1c(Cl)cccc1S(=O)(=O)Nc1ccc(-c2ncc3c(N)n[nH]c3n2)cc1 [Example 456] | 8900 | 6.2
27 | COc1ccc(Cl)c(S(=O)(=O)Nc2ccc(-c3nc(OCCCN)c4cn[nH]c4n3)cc2)c1 [Example 203] | 160 | < 1.5

Row | SMILES | IC50 [1] [nM] | IC50 [2] [nM]
28 | Cc1ccc(F)c(S(=O)(=O)Nc2ccc(-c3nc(OCCCC(N)=O)c4cn[nH]c4n3)cc2)c1 [Example 112] | 3900 | 3.3
29 | COc1ccc(Cl)c(S(=O)(=O)Nc2ccc(-c3nc(OC4CCC(O)CC4)c4c(C)n[nH]c4n3)cc2)c1 (stereo not shown) [Example 102] | 380 | 1.7
30 | O=S(=O)(Nc1ccc(-c2nc(Oc3cccnc3)c3cn[nH]c3n2)cc1)c1cc(Cl)ccc1Cl [Example 27] | 1900 | < 1.2
31 | Nc1n[nH]c2nc(-c3ccc(NS(=O)(=O)c4ccccc4F)cc3)ncc12 [Example 517] | 170 | 420
32 | Nc1n[nH]c2nc(-c3ccc(NS(=O)(=O)c4cc(F)c(F)cc4F)cc3)ncc12 [Example 516] | 640 | 300
33 | COc1ccc(F)c(S(=O)(=O)Nc2ccc(-c3nc(OCC(F)(F)F)c4c(N)n[nH]c4n3)cc2)c1 [Example 197] | 65 | 3
34 | Cc1ccc(F)c(S(=O)(=O)Nc2ccc(-c3nc(OCCCN)c4cn[nH]c4n3)cc2)c1 [Example 204] | 130 | < 1.5
35 | Cc1nc(-c2ccc(NS(=O)(=O)c3cccc(F)c3C#N)cc2)nc2[nH]nc(N)c12 [Example 474] | 11000 | 12
36 | Cc1ccc(F)c(S(=O)(=O)Nc2ccc(-c3nc(OCC4CNC(=O)C4)c4cn[nH]c4n3)cc2)c1 (stereo not shown) [Example 107] | 3700 | 2.5
37 | NCCCOc1nc(-c2ccc(NS(=O)(=O)c3cccc(Cl)c3Cl)cc2)nc2[nH]ncc12 [Example 64] | 560 | 4.2
38 | O=S(=O)(Nc1ccc(-c2nc(O[C@H]3CCCC(O)C3)c3cn[nH]c3n2)cc1)c1cc(Cl)ccc1F (stereo partly shown) [Example 84] | 1200 | 3.2
39 | O=S(=O)(Nc1ccc(-c2nc(OC3CNC3)c3cn[nH]c3n2)cc1F)c1cc(Cl)ccc1F [Example 442] | 1300 | 29
40 | Cc1ccc(C#N)c(S(=O)(=O)Nc2ccc(-c3nc(OC4CCCNC4)c4c(C)n[nH]c4n3)cc2)c1 (stereo not shown) [Example 320] | 57 | 3.7
41 | COc1nc(-c2ccc(NS(=O)(=O)c3cc(Cl)ccc3F)cc2)nc2[nH]ncc12 [Example 136] | 1700 | 41
42 | COc1ccc(Cl)c(S(=O)(=O)Nc2ccc(-c3nc(OC4CCC(O)CC4)c4cn[nH]c4n3)cc2)c1 (stereo not shown) [Example 90] | 200 | 2.2
43 | Cc1nc(-c2ccc(NS(=O)(=O)c3cc(Cl)ccc3F)cc2)nc2[nH]nc(N)c12 [Example 466] | 260 | < 1.5
44 | O=S(=O)(Nc1ccc(-c2nc(OC3CCC(O)C3)c3cn[nH]c3n2)cc1)c1cc(Cl)ccc1Cl (stereo not shown) [Example 60] | 480 | 4
45 | Cc1ccc(C#N)c(S(=O)(=O)Nc2ccc(-c3nc(OCCCN)c4c(C)n[nH]c4n3)cc2)c1 [Example 213] | 190 | 6.4
46 | Cc1ccc(F)c(S(=O)(=O)Nc2ccc(-c3nc(OC4CCC(O)CC4)c4c(C)n[nH]c4n3)cc2)c1 (stereo not shown) [Example 101] | 430 | 2.1
47 | Nc1n[nH]c2nc(-c3ccc(NS(=O)(=O)c4cc(Cl)sc4Cl)cc3)ncc12 [Example 463] | 120 | 2.5
48 | COCCc1nc(-c2ccc(NS(=O)(=O)c3cc(OC)ccc3C#N)cc2)nc2[nH]nc(N)c12 [Example 521] | 480 | 65
49 | Cc1nc(-c2ccc(NS(=O)(=O)c3ccc(F)cc3Cl)cc2)nc2[nH]nc(N)c12 [Example 164] | 600 | 40
50 | Cc1nc(-c2ccc(NS(=O)(=O)C3=C(Cl)SCC(Cl)=C3)cc2)nc2[nH]nc(N)c12 [Example 175] | 520 | 19
51 | Cc1nc(-c2ccc(NS(=O)(=O)c3cc(F)c(F)cc3Cl)cc2)nc2[nH]nc(N)c12 [Example 170] | 510 | 54
52 | O=S(=O)(Nc1ccc(-c2nc(N[C@H]3CC[C@@H](O)CC3)c3cn[nH]c3n2)cc1)c1cc(Cl)ccc1F [Example 77] | 3600 | 3.9
53 | O=S(=O)(Nc1ccc(-c2nc(O[C@H]3CC[C@@H](O)CC3)c3cn[nH]c3n2)cc1)c1cc(Cl)ccc1Cl [Example 80] | 450 | < 1.5
